# Experimental data as given in PMC8184911, “A small molecule HIF-1α stabilizer that accelerates diabetic wound healing” (Nature Communications, 2021).
# Biological target: T1, Von Hippel-Lindau (VHL) (Homo sapiens, UniProt P40337)
# T1 construct: human recombinant VHL:ElonginB:ElonginC (VBC) complex; with ElonginB, ElonginC
# Test: fluorescence-based protein thermal shift assay of purified VBC ([…] VH298, positive control, shift ca. […] °C)
# Assay type: binding
# Conditions: read-out: fluorescence-based protein thermal shift assay of purified VBC (100 μM VH298, po)
# T1 sequence (P40337 whole entry): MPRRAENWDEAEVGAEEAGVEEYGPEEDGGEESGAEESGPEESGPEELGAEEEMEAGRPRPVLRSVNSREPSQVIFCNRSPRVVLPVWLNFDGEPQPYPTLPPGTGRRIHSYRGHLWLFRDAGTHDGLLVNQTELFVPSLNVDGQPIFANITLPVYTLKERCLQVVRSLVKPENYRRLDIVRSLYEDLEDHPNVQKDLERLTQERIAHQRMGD
# T1 sequence (Q15370 whole entry partner): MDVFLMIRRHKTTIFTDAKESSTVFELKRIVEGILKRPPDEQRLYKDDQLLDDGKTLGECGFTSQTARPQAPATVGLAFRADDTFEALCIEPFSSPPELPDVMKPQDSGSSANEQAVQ
# T1 sequence (Q15369 whole entry partner): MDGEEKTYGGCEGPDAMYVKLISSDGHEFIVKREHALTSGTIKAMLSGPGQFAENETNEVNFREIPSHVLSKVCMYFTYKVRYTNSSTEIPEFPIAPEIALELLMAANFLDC
compound,measurement,value
"Cc1ncsc1-c1ccc(CNC(=O)[C@@H]2C[C@@H](O)CN2C(=O)[C@@H](NC(=O)C2(C#N)CC2)C(C)(C)C)cc1 [VH298, (2 S, 4 R)-1-((S)-2-(1-cyanocyclopropanecarboxamido)-3,3-dimethylbutanoyl)-4-hydroxy-N-(4-(4-methylthiazol-5-yl)benzyl) pyrrolidine-2-carboxamide]",ΔTm at 100 µM,~5 °C
